The record followed here is US12583818B2 (DAEGU-GYEONGBUK MEDICAL INNOVATION FOUNDATION, priority 2020, dated 2026).

Test [1] has as its system A2780 cells (ovarian cancer cells). In words: Cell viability of A2780 cells (Cell-titer Glo). To be noted: Homo sapiens. It counts as cell-based. The procedure:
(§1) In order to confirm the inhibitory effect of the compound represented by formula 1 according to the present invention on the growth of MCF7, MCF7-SP, A2780 or A2780-SP cells, the following experiment was performed, and the results are shown in Tables 4 and 5 below.
In addition, A2780 cells (ovarian cancer cells) were plated in a 96-well plate at the density of 3000 viable cells per well, and cultured in RPMI-1640 medium supplemented with 10% FBS and 1% penicillin/streptomycin.
On the next day of culture, the cells were treated with the compound of Examples 57, and 69 to 144, followed by culture for 3 days. Cell viability was evaluated by Cell-titer Glo (Promega, WC, USA), and luciferase activity was detected using a Tecan plate reader (Biocompare, USA).

The test system of test [2] is A2780-SP cells (ovarian cancer stem cells). The test is described as follows: Sphere cell viability of A2780-SP cells (Cell-titer Glo). It counts as cell-based. As to the method:
as §1
On the other hand, A2780-SP cells (ovarian cancer stem cells) were plated in an Ultra-Low Attachment round bottom 96-well plate (corning) at the density of 1,500 viable cells per well, and cultured in cancer stem cell medium. The cancer stem cell medium is composed of the neurobasal medium supplemented with 20 ng/ml of bFGF, 10 ng/ml of EGF, […] of amphotericin B, HEPES, Glutamax and B27.
On the next day of culture, the cells were treated with the compound of Examples 57, and 69 to 144, followed by culture for 8 days. The medium containing the compound was added thereto once again on the 4th day. Sphere cell viability was evaluated by Cell-titer Glo (Promega, WC, USA), and luciferase activity was detected using a Tecan plate reader (Biocompare, USA).

The target in a further test is T1, Pin1 (Homo sapiens, UniProt Q13526).
T1 construct: purchased Anaspec
T1 sequence (Q13526 whole entry): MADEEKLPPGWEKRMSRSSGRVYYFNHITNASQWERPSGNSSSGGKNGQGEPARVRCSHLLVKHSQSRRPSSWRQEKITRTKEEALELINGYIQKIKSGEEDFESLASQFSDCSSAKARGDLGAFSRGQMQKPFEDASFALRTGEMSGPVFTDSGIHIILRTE
In words: Evaluation of Pin1 enzyme inhibitory activity (Sensolyte Green Pin1 assay kit). Type of test: biochemical. The method in brief:
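Compounds were tested at four working concentrations (100, 10, 1, 0.1 μM), mixed with Pin1 (50 μg/ml stock dilution), developer and substrate (1 μM as prepared). Fluorescence at 490/520 nm was recorded after 2 h in the dark at room temperature. Results were grouped into grades A–D by inhibiting concentration.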

Setting [3] is: 72 h, cell viability, culture for 3 days, read-out: A2780.
The mark [4] stands for this setting: 192 h, sphere cell viability, culture for 8 days, read-out: A2780-SP.
The mark [5] stands for this setting: Table 2, read-out: concentration at which Pin1 inhibitory activity was exhibited.
[6] abbreviates: concentration at which the Pin1 enzyme activity is inhibited, 2 hours at room temperature, fluorescence 490 nm/520 nm, read-out: Pin 1 inhibition.
Setting [7] is: Table 5, read-out: the concentration (second list of b710, cell line not named; matches A2780-SP column).
Setting [8] is: A2780, Table 5, read-out: A2780 cell concentration.

Like-named read-outs stand apart in the source and are kept apart here.

As for `O=S(=O)(NCCCc1c[nH]c2ccc(Cl)cc12)c1ccc(CCCCn2ccnc2)cc1` [Example 148], the IC50 was more than 10000 nM in test [1] (setting [3]), 1000 to 10000 nM in test [2] (setting [4]), less than 1000 nM at Pin1 (setting [5]) and less than 1000 nM on Pin1 (setting [6]).
Regarding `CN1CCN(CCCOc2ccc(S(=O)(=O)Nc3ccccc3Cc3c[nH]c4ccc(Cl)cc34)cc2)CC1` [Example 149, N-(2-((5-chloro-1H-indole-3-yl)methyl)phenyl)-4-(3-(4-methylpiperazine-1-yl)propoxy)benzenesulfonamide], the IC50 is more than 10000 nM in test [1] (setting [3]), more than 10000 nM in test [2] (setting [4]), less than 1000 nM on Pin1 (setting [5]) and less than 1000 nM on Pin1 (setting [6]).
As for `O=S(=O)(Nc1ccccc1Cc1c[nH]c2ccc(Cl)cc12)c1ccc(OCCCN2CCNCC2)cc1` [Example 150, N-(2-((5-chloro-1H-indol-3-yl)methyl)phenyl)-4-(3-(piperazin-1-yl)propoxy)benzenesulfonamide], the IC50 was more than 10000 nM in test [1] (setting [3]); less than 1000 nM in test [2] (setting [4]); less than 1000 nM in test [2] (setting [7]); less than 1000 nM on Pin1 (setting [5]); less than 1000 nM on Pin1 (setting [6]).
`CC(CCc1c[nH]c2ccc(Cl)cc12)NS(=O)(=O)c1ccc(OCCCN2CCN(C)CC2)cc1` (stereo not shown) [Example 151]: the IC50 in test [1] (setting [3]) is more than 10000 nM; in test [2] (setting [4]), less than 1000 nM; in test [2] (setting [7]), less than 1000 nM; at Pin1 (setting [5]), less than 1000 nM; on Pin1 (setting [6]), less than 1000 nM.
`CC(CCc1c[nH]c2ccc(Cl)cc12)NS(=O)(=O)c1ccc(OCCCN2CCNCC2)cc1` (stereo not shown) [Example 152, N-(4-(5-chloro-1H-indol-3-yl)butan-2-yl)-4-(3-(piperazin-1-yl)propoxy)benzenesulfonamide]: the IC50 is more than 10000 nM in test [1] (setting [3]); less than 1000 nM in test [2] (setting [4]); less than 1000 nM in test [2] (setting [7]); less than 1000 nM on Pin1 (setting [5]); less than 1000 nM on Pin1 (setting [6]).
In the case of `O=S(=O)(NCCCc1c[nH]c2ccc(Br)cc12)c1ccc(OCCCN2CCNCC2)cc1` [Example 153, N-(3-(5-bromo-1H-indole-3-yl)propyl)-4-(3-(piperazine-1-yl)propoxy)benzenesulfonamide], the IC50 in test [1] (setting [3]) was 1000 to 10000 nM; in test [1] (setting [8]) it was less than 10000 nM; in test [2] (setting [4]), less than 1000 nM; in test [2] (setting [7]) it was less than 1000 nM; on Pin1 (setting [5]), less than 1000 nM; at Pin1 (setting [6]), less than 1000 nM.
As to `CN1CCN(CCCOc2ccc(S(=O)(=O)NCCCc3c[nH]c4ccc(Br)cc34)cc2)CC1` [Example 154, N-(3-(5-bromo-1H-indol-3-yl)propyl)-4-(3-(4-methylpiperazin-1-yl)propoxy)benzenesulfonamide], the IC50 in test [1] (setting [3]) was 1000 to 10000 nM; in test [1] (setting [8]), less than 10000 nM; in test [2] (setting [4]) it was less than 1000 nM; in test [2] (setting [7]) it was less than 1000 nM; on Pin1 (setting [5]), less than 1000 nM; on Pin1 (setting [6]), less than 1000 nM.
Turning to `Cc1[nH]c2ccc(Cl)cc2c1CCCNS(=O)(=O)c1ccc(OCCCN2CCNCC2)cc1` [Example 157, N-(3-(5-chloro-2-methyl-1H-indol-3-yl)propyl)-4-(3-(piperazin-1-yl)propoxy)benzenesulfonamide], the IC50 in test [1] (setting [3]) was more than 10000 nM; in test [2] (setting [4]) it was less than 1000 nM; in test [2] (setting [7]) it was less than 1000 nM; at Pin1 (setting [6]) it was 1000 to 10000 nM.
For `CN1CCN(CCCOc2ccc(S(=O)(=O)NCCc3c[nH]c4ccc(Cl)cc34)cc2)CC1` [Example 158, N-(2-(5-chloro-1H-indol-3-yl)ethyl)-4-(3-(4-methylpiperazin-1-yl)propoxy)benzenesulfonamide], the IC50 in test [1] (setting [3]) was more than 10000 nM; in test [2] (setting [4]) it was less than 1000 nM; in test [2] (setting [7]), less than 1000 nM; at Pin1 (setting [5]) it was less than 1000 nM; on Pin1 (setting [6]), less than 1000 nM.
Take `O=S(=O)(NCCc1c[nH]c2ccc(Cl)cc12)c1ccc(OCCCN2CCNCC2)cc1` [Example 159, N-(2-(5-chloro-1H-indol-3-yl)ethyl)-4-(3-(piperazin-1-yl)propoxy)benzenesulfonamide]: the IC50 in test [1] (setting [3]) is more than 10000 nM; in test [2] (setting [4]), less than 1000 nM; in test [2] (setting [7]) it was less than 1000 nM; at Pin1 (setting [5]), less than 1000 nM; at Pin1 (setting [6]), less than 1000 nM.
Take `O=S(=O)(NCCCc1c[nH]c2ccc(Cl)cc12)c1ccc(OCCCn2cncn2)cc1` [Example 160, 4-(3-(1H-1,2,4-triazol-1-yl)propoxy)-N-(3-(5-chloro-1H-indol-3-yl)propyl)benzenesulfonamide]: the IC50 in test [1] (setting [3]) is more than 10000 nM; in test [2] (setting [4]) it was more than 10000 nM; at Pin1 (setting [5]) it was less than 1000 nM; on Pin1 (setting [6]) it was less than 1000 nM.
Take `Cc1nccn1CCCOc1ccc(S(=O)(=O)NCCCc2c[nH]c3ccc(Cl)cc23)cc1` [Example 161, N-(3-(5-chloro-1H-indol-3-yl)propyl)-4-(3-(2-methyl-1H-imidazol-1-yl)propoxy)benzenesulfonamide]: the IC50 in test [1] (setting [3]) is more than 10000 nM; in test [2] (setting [4]), less than 1000 nM; in test [2] (setting [7]) it was less than 1000 nM; at Pin1 (setting [5]) it was less than 1000 nM; at Pin1 (setting [6]) it was less than 1000 nM.
With `O=S(=O)(NCCCc1c[nH]c2c(Cl)cc(Cl)cc12)c1ccc(OCCCN2CCNCC2)cc1` [Example 164, N-(3-(5,7-dichloro-1H-indol-3-yl)propyl)-4-(3-(piperazin-1-yl)propoxy)benzenesulfonamide], the IC50 is 1000 to 10000 nM in test [1] (setting [3]); less than 10000 nM in test [1] (setting [8]); less than 1000 nM in test [2] (setting [4]); less than 1000 nM in test [2] (setting [7]); less than 1000 nM at Pin1 (setting [5]); less than 1000 nM on Pin1 (setting [6]).
Turning to `CN1CCN(CCCOc2ccc(S(=O)(=O)NCCCc3c[nH]c4c(Cl)cc(Cl)cc34)cc2)CC1` [Example 165, N-(3-(5,7-dichloro-1H-indol-3-yl)propyl)-4-(3-(4-methylpiperazin-1-yl)propoxy)benzenesulfonamide], the IC50 in test [1] (setting [3]) is 1000 to 10000 nM; in test [1] (setting [8]), less than 10000 nM; in test [2] (setting [4]), less than 1000 nM; in test [2] (setting [7]), less than 1000 nM; at Pin1 (setting [5]), less than 1000 nM; at Pin1 (setting [6]), less than 1000 nM.
In the case of `O=S(=O)(NCCCc1c[nH]c2ccc(Cl)cc12)c1ccc(OCCCn2cnc(Cl)c2Cl)cc1` [Example 166, N-(3-(5-chloro-1H-indol-3-yl)propyl)-4-(3-(4,5-dichloro-1H-imidazol-1-yl)propoxy)benzenesulfonamide], the IC50 in test [1] (setting [3]) was more than 10000 nM; in test [2] (setting [4]) it was 1000 to 10000 nM; on Pin1 (setting [5]), less than 1000 nM; on Pin1 (setting [6]), less than 1000 nM.
For `CN1CCN(CCCOc2ccc(S(=O)(=O)NCCCc3n[nH]c4ccc(Cl)cc34)cc2)CC1` [Example 167, N-(3-(5-chloro-1H-indazole-3-yl)propyl)-4-(3-(4-methylpiperazine-1-yl)propoxy)benzenesulfonamide], the IC50 is 1000 to 10000 nM in test [1] (setting [3]); less than 10000 nM in test [1] (setting [8]); less than 1000 nM in test [2] (setting [4]); less than 1000 nM in test [2] (setting [7]); less than 1000 nM at Pin1 (setting [5]); less than 1000 nM on Pin1 (setting [6]).
For `O=S(=O)(NCCCc1n[nH]c2ccc(Cl)cc12)c1ccc(OCCCN2CCNCC2)cc1` [Example 168, N-(3-(5-chloro-1H-indazol-3-yl)propyl)-4-(3-(piperazin-1-yl)propoxy)benzenesulfonamide], the IC50 in test [1] (setting [3]) was more than 10000 nM; in test [2] (setting [4]), less than 1000 nM; in test [2] (setting [7]), less than 1000 nM; on Pin1 (setting [5]), less than 1000 nM; on Pin1 (setting [6]) it was less than 1000 nM.
Consider `CN1CCN(CCCOc2ccc(S(=O)(=O)NCCCc3c[nH]c4ncc(Cl)cc34)cc2)CC1` [Example 169, N-(3-(5-chloro-1H-pyrrolo[2,3-b]pyridin-3-yl)propyl)-4-(3-(4-methylpiperazin-1-yl)propoxy)benzenesulfonamide], for which the IC50 is 1000 to 10000 nM in test [1] (setting [3]); less than 10000 nM in test [1] (setting [8]); less than 1000 nM in test [2] (setting [4]); less than 1000 nM in test [2] (setting [7]); less than 1000 nM at Pin1 (setting [5]); less than 1000 nM at Pin1 (setting [6]).
Consider `O=S(=O)(NCCCc1c[nH]c2ncc(Cl)cc12)c1ccc(OCCCN2CCNCC2)cc1` [Example 170, N-(3-(5-chloro-1H-pyrrolo[2,3-b]pyridin-3-yl)propyl)-4-(3-(piperazin-1-yl)propoxy)benzenesulfonamide], for which the IC50 in test [1] (setting [3]) is 1000 to 10000 nM; in test [1] (setting [8]), less than 10000 nM; in test [2] (setting [4]), less than 1000 nM; in test [2] (setting [7]), less than 1000 nM; on Pin1 (setting [5]), less than 1000 nM; on Pin1 (setting [6]), less than 1000 nM.
